Measured values reported in US8680159B2, “Bradykinin 1 receptor modulating compounds” (Gruenenthal GmbH, priority 2010, dated 2014).

target: T1, B1R receptor of the rat (CHO K1 cells stably transfected with the B1R gene of the rat) (Rattus norvegicus, UniProt P97583); assay: Functional study on the bradykinin receptor 1 (B1R), Ca2+ fluorescence (Fluo-4) FLIPR/Novostar assay, rB1R cells; assay type: cell-based; settings: CHO-K1, 10 μM, read-out: % Inhibition (r-B1R) at 10 μM
T1 construct: expressed in transfected cells; host or cells: CHO K1 cells (Chinese hamster ovary), stably transfected
T1 sequence (P97583 1-337): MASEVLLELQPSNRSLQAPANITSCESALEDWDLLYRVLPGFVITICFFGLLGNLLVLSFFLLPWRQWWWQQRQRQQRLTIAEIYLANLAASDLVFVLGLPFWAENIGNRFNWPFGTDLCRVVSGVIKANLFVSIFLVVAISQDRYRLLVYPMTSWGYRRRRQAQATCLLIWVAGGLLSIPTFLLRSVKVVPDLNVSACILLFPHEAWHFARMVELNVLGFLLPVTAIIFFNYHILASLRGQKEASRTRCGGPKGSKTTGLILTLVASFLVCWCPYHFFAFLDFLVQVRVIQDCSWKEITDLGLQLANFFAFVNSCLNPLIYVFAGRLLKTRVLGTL
Protocol: The agonistic or antagonistic action of substances can be quantified on the bradykinin receptor 1 (B1R) of the species human and rat using ectopically expressing cell lines (CHO K1 cells) and with the aid of a Ca^2+-sensitive dye (Fluo-4) using a fluorescent imaging plate reader (FLIPR). The indication in % activation is based on the Ca^2+ signal after addition of Lys-Des-Arg^9-bradykinin (0.5 nM) or Des-Arg^9-bradykinin (100 nM). Antagonists lead to suppression of the Ca^2+ influx after the addition of the agonist. % Inhibition compared with the maximum achievable inhibition is indicated.
The agonistic or antagonistic action of substances can be determined on the bradykinin receptor 1 (B1R) of the species human and rat using the following assay. According to this assay, the increase in intracellular Ca^2+ following administration of a B1R agonist is quantified with the aid of a Ca^2+-sensitive dye (Fluo-4 type, Molecular Probes Europe BV, Leiden, Netherlands) using a Fluorescent Imaging Plate Reader (FLIPR, Molecular Devices, Sunnyvale, USA) and/or using a Novostar (BMG Labtech GmbH, Offenburg, Germany).
Chinese hamster ovary cells (CHO K1 cells) which have been stably transfected with the human B1R gene (hB1R cells) or with the B1R gene of the rat (rB1R cells) are used. For functional studies, the cells are plated out on black 96-well plates having a clear base (BD Biosciences, Heidelberg, Germany or Greiner, Frickenhausen, Germany) in a density of 20,000-35,000 cells/well. The cells are left overnight at 37° C. and with 5% CO2 in culture medium (hB1R cells: Nutrient Mixture Ham's F12, Gibco Invitrogen GmbH, Karlsruhe, Germany or DMEM, Sigma-Aldrich, Taufkirchen, Germany; rB1R cells: D-MEM/F12, Gibco Invitrogen GmbH, Karlsruhe, Germany), with 10 vol. % FBS (fetal bovine serum, Gibco Invitrogen GmbH, Karlsruhe, Germany or PAN Biotech GmbH, Aidenbach, Germany). On the following day, the cells are loaded for 60 minutes at 37° C. with 2.13 μM Fluo-4 (Molecular Probes Europe BV, Leiden, Netherlands) in HBSS buffer (Hank's buffered saline solution, Gibco Invitrogen GmbH, Karlsruhe, Germany) […] (Sigma-Aldrich, Taufkirchen, Germany) and 10 mM HEPES (Sigma-Aldrich, Taufkirchen, Germany). The plates are then washed twice with HBSS buffer, and HBSS buffer additionally containing 0.1% BSA (bovine serum albumin; Sigma-Aldrich, Taufkirchen, Germany), 5.6 mM glucose and 0.05% gelatin (Merck KGaA, Darmstadt, Germany) is added to the plates. After incubation for a further 20 minutes at room temperature, the plates are inserted into the FLIPR or Novostar for Ca^2+ measurement. Alternatively, washing is carried out with buffer A (15 mM HEPES, 80 mM NaCl, 5 mM KCl, 1.2 mM CaCl2, 0.7 mM MgSO4, 2 g/l glucose, 2.5 mM probenecid) followed by loading with buffer A with added 2.5 μM Fluo-4 and 0.025% Pluronic F127 (Sigma-Aldrich, Taufkirchen, Germany). The cells are then washed twice with buffer A and incubated for 30 minutes at room temperature with buffer A additionally containing 0.05% BSA and 0.05% gelatin and are then inserted into the FLIPR or Novostar for Ca^2+ measurement. The Ca^2+-dependent fluorescence is measured before and after the addition of substances (λex=488 nm, λem=540 nm). Quantification is carried out by measuring the highest fluorescence intensity (FC, fluorescence counts) over time.
The FLIPR protocol consists of 2 substance additions, which are pipetted in the FLIPR. In the case of measurements using the Novostar, only the second substance addition is pipetted in the device. Both devices measure the fluorescence intensity over time. Test substances (10 μM) are first pipetted onto the cells and the intracellular Ca^2+ increase is compared with the control (hB1R: Lys-Des-Arg^9-bradykinin>=50 nM; rB1R: Des-Arg^9-bradykinin>=1 μM). This gives the % activation, based on the Ca^2+ signal after addition of Lys-Des-Arg^9-bradykinin (>=50 nM) or Des-Arg^9-bradykinin (>=1 μM). […]

| SMILES | inhibition at 10 µM |
| --- | --- |
| CN(C(=O)c1ccc2c(c1)C(NC(=O)c1cc(F)ccc1Cl)CC2)C1CCN(c2ccncc2)CC1 (centres unmarked) [CC_H-200, 3-[(2-Chloro-5-fluoro-benzoyl)amino]-N-methyl-N-(1-pyridin-4-yl-piperidin-4-yl)-2,3-dihydro-1H-indene-5-carboxylic acid amide] | 111% |
| CN(C(=O)c1ccc2c(c1)C(NC(=O)c1cc(C(F)(F)F)ccc1Cl)CC2)C1CCN(c2ccncc2)CC1 (centres unmarked) [CC_H-201, 3-[[2-Chloro-5-(trifluoromethyl)-benzoyl]amino]-N-methyl-N-(1-pyridin-4-yl-piperidin-4-yl)-2,3-dihydro-1H-indene-5-carboxylic acid amide] | 111% |
| Cc1ccc(F)c(C(=O)NC2CCc3ccc(C(=O)N(C)C4CCN(c5ccncc5)CC4)cc32)c1Cl (centres unmarked) [CC_H-202, 3-[(2-Chloro-6-fluoro-3-methyl-benzoyl)amino]-N-methyl-N-(1-pyridin-4-yl-piperidin-4-yl)-2,3-dihydro-1H-indene-5-carboxylic acid amide] | 111% |
| CN(C(=O)c1ccc2c(c1)C(NC(=O)c1cc(Cl)ccc1Cl)CC2)C1CCN(c2ccncc2)CC1 (centres unmarked) [CC_H-203, 3-[(2,5-Dichloro-benzoyl)amino]-N-methyl-N-(1-pyridin-4-yl-piperidin-4-yl)-2,3-dihydro-1H-indene-5-carboxylic acid amide] | 111% |
| CN(C(=O)c1ccc2c(c1)C(NC(=O)c1c(Cl)cccc1C(F)(F)F)CC2)C1CCN(c2ccncc2)CC1 (centres unmarked) [CC_H-204, 3-[[2-Chloro-6-(trifluoromethyl)-benzoyl]amino]-N-methyl-N-(1-pyridin-4-yl-piperidin-4-yl)-2,3-dihydro-1H-indene-5-carboxylic acid amide] | 110% |
| CN(C(=O)c1ccc2c(c1)C(NC(=O)C1CC1)CC2)C1CCN(c2ccncc2)CC1 (centres unmarked) [CC_H-205, 3-(Cyclopropanecarbonylamino)-N-methyl-N-(1-pyridin-4-yl-piperidin-4-yl)-2,3-dihydro-1H-indene-5-carboxylic acid amide] | 98% |
| CN(C(=O)c1ccc2c(c1)C(NC(=O)CC(C)(C)C)CC2)C1CCN(c2ccncc2)CC1 (centres unmarked) [CC_H-206, 3-(3,3-Dimethyl-butanoylamino)-N-methyl-N-(1-pyridin-4-yl-piperidin-4-yl)-2,3-dihydro-1H-indene-5-carboxylic acid amide] | 109% |
| COCC(=O)NC1CCc2ccc(C(=O)N(C)C3CCN(c4ccncc4)CC3)cc21 (centres unmarked) [CC_H-207, 3-[(2-Methoxy-acetyl)amino]-N-methyl-N-(1-pyridin-4-yl-piperidin-4-yl)-2,3-dihydro-1H-indene-5-carboxylic acid amide] | 89% |
| CN(C(=O)c1ccc2c(c1)C(N(C)C(=O)c1cc(F)ccc1Cl)CC2)C1CCN(c2ccncc2)CC1 (centres unmarked) [CC_H-208, 3-[(2-Chloro-5-fluoro-benzoyl)-methyl-amino]-N-methyl-N-(1-pyridin-4-yl-piperidin-4-yl)-2,3-dihydro-1H-indene-5-carboxylic acid amide] | 111% |
| Cc1ccc(F)c(C(=O)N(C)C2CCc3ccc(C(=O)N(C)C4CCN(c5ccncc5)CC4)cc32)c1Cl (centres unmarked) [CC_H-209, 3-[(2-Chloro-6-fluoro-3-methyl-benzoyl)-methyl-amino]-N-methyl-N-(1-pyridin-4-yl-piperidin-4-yl)-2,3-dihydro-1H-indene-5-carboxylic acid amide] | 112% |
| CN(C(=O)c1ccc2c(c1)C(N(C)C(=O)c1cc(Cl)ccc1Cl)CC2)C1CCN(c2ccncc2)CC1 (centres unmarked) [CC_H-210, 3-[(2,5-Dichloro-benzoyl)-methyl-amino]-N-methyl-N-(1-pyridin-4-yl-piperidin-4-yl)-2,3-dihydro-1H-indene-5-carboxylic acid amide] | 112% |
| CN(C(=O)c1ccc2c(c1)C(N(C)C(=O)C1CCCCC1)CC2)C1CCN(c2ccncc2)CC1 (centres unmarked) [CC_H-211, 3-(Cyclohexanecarbonyl-methyl-amino)-N-methyl-N-(1-pyridin-4-yl-piperidin-4-yl)-2,3-dihydro-1H-indene-5-carboxylic acid amide] | 108% |
| CN(C(=O)c1ccc2c(c1)C(N(C)C(=O)C1CC1)CC2)C1CCN(c2ccncc2)CC1 (centres unmarked) [CC_H-212, 3-(Cyclopropanecarbonyl-methyl-amino)-N-methyl-N-(1-pyridin-4-yl-piperidin-4-yl)-2,3-dihydro-1H-indene-5-carboxylic acid amide] | 108% |
| CN(C(=O)c1ccc2c(c1)C(N(C)C(=O)CC(C)(C)C)CC2)C1CCN(c2ccncc2)CC1 (centres unmarked) [CC_H-213, 3-(3,3-Dimethyl-butanoyl-methyl-amino)-N-methyl-N-(1-pyridin-4-yl-piperidin-4-yl)-2,3-dihydro-1H-indene-5-carboxylic acid amide] | 110% |
| CC(=O)N(C)C1CCc2ccc(C(=O)N(C)C3CCN(c4ccncc4)CC3)cc21 (centres unmarked) [CC_H-215, 3-(Acetyl-methyl-amino)-N-methyl-N-(1-pyridin-4-yl-piperidin-4-yl)-2,3-dihydro-1H-indene-5-carboxylic acid amide] | 65% |
| CN(C(=O)c1ccc2c(c1)C(N(C)C(=O)c1cccc(C(F)(F)F)c1Cl)CC2)C1CCN(c2ccncc2)CC1 (centres unmarked) [CC_H-216, 3-[[2-Chloro-3-(trifluoromethyl)-benzoyl]-methyl-amino]-N-methyl-N-(1-pyridin-4-yl-piperidin-4-yl)-2,3-dihydro-1H-indene-5-carboxylic acid amide] | 110% |
| CN(C(=O)c1ccc2c(c1)C(N(C)C(=O)Nc1ccccc1Cl)CC2)C1CCN(c2ccncc2)CC1 (centres unmarked) [CC_H-217, 3-[[(2-Chlorophenyl)-carbamoyl]-methyl-amino]-N-methyl-N-(1-pyridin-4-yl-piperidin-4-yl)-2,3-dihydro-1H-indene-5-carboxylic acid amide] | 94% |
| CN(C(=O)c1ccc2c(c1)C(N(C)C(=O)Nc1cccc(Cl)c1)CC2)C1CCN(c2ccncc2)CC1 (centres unmarked) [CC_H-218, 3-[[(3-Chlorophenyl)-carbamoyl]-methyl-amino]-N-methyl-N-(1-pyridin-4-yl-piperidin-4-yl)-2,3-dihydro-1H-indene-5-carboxylic acid amide] | 109% |
| CN(C(=O)c1ccc2c(c1)C(N(C)C(=O)Nc1c(Cl)cccc1Cl)CC2)C1CCN(c2ccncc2)CC1 (centres unmarked) [CC_H-219, 3-[[(2,6-Dichloro-phenyl)-carbamoyl]-methyl-amino]-N-methyl-N-(1-pyridin-4-yl-piperidin-4-yl)-2,3-dihydro-1H-indene-5-carboxylic acid amide] | 86% |
| CN(C(=O)c1ccc2c(c1)C(N(C)C(=O)Nc1cccc(Cl)c1Cl)CC2)C1CCN(c2ccncc2)CC1 (centres unmarked) [CC_H-220, 3-[[(2,3-Dichloro-phenyl)-carbamoyl]-methyl-amino]-N-methyl-N-(1-pyridin-4-yl-piperidin-4-yl)-2,3-dihydro-1H-indene-5-carboxylic acid amide] | 107% |
